Data set [1] can be described thus: Clearance in male Sprague-Dawley rat at 4 mg/kg, iv administered via tail vein and measured upto 24 hrs by LC-MS/MS analysis. It counts as ADME, organism-based. The settings on record: in vivo.
Data set [2] can be described thus: Plasma protein binding in human assessed as binding rate at 250 ng/ml prewarmed for 30 mins by LC-MS/MS analysis. The settings on record: read-out: PPB (converted). It counts as ADME, cell-free.
Data set [3] in a line: Plasma protein binding in rat assessed as binding rate at 500 ng/ml prewarmed for 30 mins by LC-MS/MS analysis. The format is ADME, cell-free. Conditions: read-out: PPB (converted).
The nature of data set [4]: Metabolic stability in human liver microsomes at 1 uM measured upto 120 mins by LC-MS/MS analysis. The format is ADME, Microsome. The settings on record: 2 h. (In general: Liver microsomes are vesicles of endoplasmic reticulum, rich in cytochrome P450 enzymes.)
Data set [5] is described as follows: Metabolic stability in mouse liver microsomes assessed as half life at 1 uM measured upto 120 mins by LC-MS/MS analysis. The format is ADME, Microsome.
Another data set addresses T1, Cytochrome P450 1A2 (Mus musculus, UniProt P00186).
T1 sequence (P00186 whole entry): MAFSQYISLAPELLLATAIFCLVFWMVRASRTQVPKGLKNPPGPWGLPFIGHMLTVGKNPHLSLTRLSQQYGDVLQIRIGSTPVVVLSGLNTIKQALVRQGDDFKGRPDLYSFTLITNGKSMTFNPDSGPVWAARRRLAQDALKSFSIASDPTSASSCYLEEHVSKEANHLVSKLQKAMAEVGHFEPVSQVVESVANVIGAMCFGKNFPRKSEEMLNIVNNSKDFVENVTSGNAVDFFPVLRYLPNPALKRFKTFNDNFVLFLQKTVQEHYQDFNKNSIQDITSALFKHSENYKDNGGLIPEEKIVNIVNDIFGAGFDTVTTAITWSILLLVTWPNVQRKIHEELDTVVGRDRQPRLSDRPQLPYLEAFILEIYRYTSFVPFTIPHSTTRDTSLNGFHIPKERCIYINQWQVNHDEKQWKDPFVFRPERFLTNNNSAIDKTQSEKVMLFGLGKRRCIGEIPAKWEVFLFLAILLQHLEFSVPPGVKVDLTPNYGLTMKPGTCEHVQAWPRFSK
Put plainly: Inhibition of mouse CYP1A2 at 0.01 to 50 uM measured after 30 mins by LC-MS/MS analysis. The format is ADME. Conditions: 0.5 h, dose 0.01-50 µM.

Data set [6] in a line: Ratio of Cmax in male Sprague-Dawley rat brain to plasma at 10 mg/kg, IG administered as single dose. The format is ADME, organism-based. The settings on record: brain and plasma, po, read-out: BPR.
A short description of data set [7]: Subacute toxicity in Sprague-Dawley rat assessed as animal death at 50 to 140 mg/kg, IG administered once a day for 14 days. The format is organism-based. The settings on record: in vivo, po, 336 h, dose 50-140 mg/kg, time 14 day.

The record followed here is ChEMBL document CHEMBL5512623, “Discovery of the novel and potent histamine H1 receptor antagonists for treatment of allergic diseases” (Eur J Med Chem, 2024).

For orientation: clearance means the rate of elimination divided by the concentration. Lower therefore signals a low capacity for elimination. A word on the half-life: it is the time needed for the level to fall by half in the phase considered.

Consider `CC(C)(C(=O)O)c1cccc(CCCN2CCC(=C3c4ccc(Cl)cc4CCc4cccnc43)CC2)c1`, for which the clearance in data set [1] amounted to 37 mL/min/kg. The fraction unbound at 0.5 h, 250 ng/ml in data set [2] is 0.347. Moreover, the fraction unbound at 0.5 h, 500 ng/ml in data set [3] was 0.34. Besides, the Stability result in data set [4] is given as “Stable”. Further, the half-life at 1 µM in data set [5] is 1.44 h. The “inhibition (INH)” value on Cytochrome P450 1A2 was “Not Active”. In data set [6], the Kp came out at 0.066. Further, in data set [7], the Activity entry was “Non-Toxic”.
